Measured values reported in patent publication US5239083A, “Indole derivatives which inhibit steroid 5α reductase” (Kyowa Hakko Kogyo Co., Ltd., priority 1991, dated 1993).

What was measured:
male dd mice = assay: Acute Toxicity Test (oral, mice); format: in vivo; conditions: oral 300 mg/kg, mortality observed seven days after administration
Description: Test compounds (300 mg/kg) were orally administered to male dd mice weighing 20±1 g (each group consists of three animals). Minimum lethal dose (MLD) was determined by observing mortality seven days after the administration.

steroid 5α-reductase = assay: Inhibition effects on steroid 5α-reductase activity (rat prostate enzyme, [4-14C]-testosterone); format: biochemical, male rats; conditions: pH 6.5, 37° C., 20 minutes
Description: The measurements of inhibition effects of test compounds on steroid 5α-reductase activity were performed according to the method described by Liang et al. [J. Biol. Chem., 259, 734 (1984)] as follows.
The prostates from male rats were homogenated in three tissue volumes of 20 mM sodium phosphate buffer (pH 6.5; containing 0.32M sucrose and 1 mM dithiothreitol). The homogenate was centrifuged at 140,000 X g for one hour. The precipitate was suspended in the buffer described above and the suspension was centrifuged at 140,000 X g for one hour. The precipitate was resuspended in the buffer described above and the solution (30-50 mg protein/ml) was used as enzyme in following assay.
[4-^14 C]-testosterone (1.5 nmol), NADPH (75 nmol), the enzyme (1 mg protein) and test compound in a total volume of 0.5 ml of 40 mM sodium phosphate buffer [pH 6.5, containing 1 mM dithiothreitol] was incubated at 37° C. After 20 minutes the enzyme activity was stopped by the addition of 2 ml of ethyl acetate. The mixture was then centrifuged at 1,000 g, for 5 minutes. The ethyl acetate layer was transferred to another tube and evaporated to dryness. The steroids were taken up in 50 μl of ethyl acetate and separated by thin layer chromatography (TLC) on silica gel in a developing solvent (ethyl acetate: cyclohexane=1:1). The radioactivity of testosterone and dihydrotestosterone on the TLC plate was measured by a TLC scanner.

Structure (SMILES)	Acute toxicity (MLD), minimum lethal dose (male dd mice) [mg/kg]	inhibition rate (%), 10^-7 M (steroid 5α-reductase) [%]
C/C(=C\C(=O)Nc1ccccc1OCCCC(=O)O)c1ccc2c(ccn2C(c2ccccc2)c2ccccc2C)c1 (centres unmarked) [Compound 52]	> 300	90
CCCCCC(c1ccccc1)n1ccc2cc(/C(C)=C/C(=O)Nc3ccccc3OCCCC(=O)O)ccc21 (stereo not drawn) [Compound 43, 4-{2-[3-[1-(α-pentylbenzyl)indol-5-yl]isocrotonoylamino]phenoxy}butyric acid]	> 300	74
CCCCCn1ccc2cc(/C(C)=C/C(=O)Nc3ccccc3OCCCC(=O)O)ccc21 [Compound 6, 4-{2-[3-(1-pentylindol-5-yl)isocrotonoylamino]phenoxy}butyric acid]	> 300	81
CCCCC(CC)n1ccc2cc(/C(C)=C/C(=O)Nc3ccccc3OCCCC(=O)O)ccc21 (centres unmarked) [Compound 18, 4-{2-[3-[1-(1-ethylpentyl)indol-5-yl]isocrotonoylamino]phenoxy}butyric acid]	> 300	90
C/C(=C\C(=O)Nc1ccccc1OCCCC(=O)O)c1ccc2c(ccn2C(c2ccccc2)c2ccc(C)cc2)c1 (centres unmarked) [Compound 53]	> 300	84
C/C(=C\C(=O)Nc1ccccc1OCCCC(=O)O)c1ccc2c(ccn2C(c2ccccc2)C(C)C)c1 (stereo not drawn) [Compound 44, 4-{2-[3-[1-[α-(2-methylethyl)benzyl]indol-5-yl]isocrotonoylamino]phenoxy}butyric acid]	> 300	78
C/C(=C\C(=O)Nc1ccccc1OCCCC(=O)O)c1ccc2c(ccn2C2CCCc3ccccc32)c1 (centres unmarked) [Compound 45, 4-{2-[3-[1-(1,2,3,4-tetrahydro-1-naphthyl)indol-5-yl]isocrtonoylamino]phenoxy}butyric acid]	> 300	77
